# Assays:
# A549 cells = assay: Lactate dehydrogenase release; format: cell-based, human; conditions: A549, IC50 concentrations, 48 h
# Procedure: (§1) LDH is a stable cytoplasmic enzyme that is released into the culture medium following loss of membrane integrity and serves as a general mean to assess cytotoxicity resulting from chemical compounds or environmental toxic factors.[68] In the present study, LDH leakage into the culture medium of the compounds treated A549 and MCF-7 cells was analyzed. […] The results confirmed the cytotoxic effect of the ligands and complexes on lung and breast cancer cell lines. The compounds could induce LDH leakage as high as that of cisplatin. […] Error bars represent the standard mean error (n = 6).
# MCF-7 cells = assay: Lactate dehydrogenase release; format: cell-based, human; conditions: MCF-7, IC50 concentrations, 48 h
# Procedure: as §1
smiles,measurement,setting,value
"CCNC1=N[N+]2=C(C)c3[c](c4ccc(OC)cc4oc3=O)[Ru-4]2([C]#[O+])([P+](c2ccccc2)(c2ccccc2)c2ccccc2)([P+](c2ccccc2)(c2ccccc2)c2ccccc2)[S]1 [Complex 3, [Ru(7MAC-etsc)(CO)(PPh3)2]]",LDH release into the culture medium,A549 cells,more potent in inducing LDH leakage into the culture than the rest
same,LDH release into the culture medium,MCF-7 cells,more potent in inducing LDH leakage into the culture than the rest
